In patent US20030096823A1, “Method for the treatment of cardiotoxicity induced by antitumor compounds” (priority 2001, published 2003):

Tested on: heart (myocardial damage) of Crl:CD-1 (ICR) BR female mice
Assay: cardiotoxicity in the Bertazzoli mouse model
Assay type: in vivo
Conditions: intravenous, expected
Procedure: Animals/group: 15 Crl:CD-1 (ICR) BR female mice, about 4 weeks old at the start of treatment, will be used.
Test and control articles and formulations: Epi and rmuAb will be dissolved in normal saline (saline) and distilled water for injection (water), respectively, at the requested concentrations; dex will be dissolved in M/6 sodium lactate at the requested concentration; control animals will receive the above vehicles alone.
Dose levels and justification: The doses of 5 mg/kg/day for epi and 50 mg/kg/day for dex (epi/dex ratio: 1:10) are selected on the basis of the results of previous cardiotoxicity studies in mice. […] The two doses of rmuAb will be decided on the basis of the results of two preliminary studies performed to assess its toxicity and cardiotoxic potential in the above strain of mice.
Administration route: intravenous, via a tail vein, for epi, dex and rmuAb.
Study duration and treatment schedule: Twice a week at weeks 1, 2, 5, 6, and 7 for epi and dex; twice a week for 7 weeks for rmuAb. Dex will be given 30 minutes before epi. […]
Clinical observations and post-mortem examinations: Mortality, clinical signs and general condition will be recorded daily and body weight weekly. […] Cardiomyopathy will be evaluated by scoring the severity and extent of the myocardial lesions according to a qualitative/quantitative score. […]

SMILES | cardiotoxicity induced (5 mg/kg/day epi) | effect on myocardial damage produced by epi (50 mg/kg/day dex, 30 minutes before epi)
COc1cccc2c1C(=O)c1c(O)c3c(c(O)c1C2=O)C[C@@](O)(C(=O)CO)C[C@@H]3O[C@H]1C[C@H](N)[C@@H](O)[C@H](C)O1 [epi, epirubicin] | moderate/marked cardiotoxicity | 
C[C@@H](CN1CC(=O)NC(=O)C1)N1CC(=O)NC(=O)C1 [dex, dexrazoxane] |  | significantly reduce the myocardial damage
